Laboratory results: BindingDB's records for doi:10.1002/(SICI)1098-2396(200002)35:2<79::AID-SYN1>3.0.CO;2-X (Institut De Recherches Servier, 2000)

Tests used:
[1] = target: D(2) dopamine receptor (Rattus norvegicus, UniProt P61169)
[2] = target: 5-hydroxytryptamine receptor 1B (Cavia porcellus, UniProt O08892)
[3] = target: T1, Alpha-2C adrenergic receptor (Homo sapiens, UniProt P18825)
T1 sequence (P18825 whole entry): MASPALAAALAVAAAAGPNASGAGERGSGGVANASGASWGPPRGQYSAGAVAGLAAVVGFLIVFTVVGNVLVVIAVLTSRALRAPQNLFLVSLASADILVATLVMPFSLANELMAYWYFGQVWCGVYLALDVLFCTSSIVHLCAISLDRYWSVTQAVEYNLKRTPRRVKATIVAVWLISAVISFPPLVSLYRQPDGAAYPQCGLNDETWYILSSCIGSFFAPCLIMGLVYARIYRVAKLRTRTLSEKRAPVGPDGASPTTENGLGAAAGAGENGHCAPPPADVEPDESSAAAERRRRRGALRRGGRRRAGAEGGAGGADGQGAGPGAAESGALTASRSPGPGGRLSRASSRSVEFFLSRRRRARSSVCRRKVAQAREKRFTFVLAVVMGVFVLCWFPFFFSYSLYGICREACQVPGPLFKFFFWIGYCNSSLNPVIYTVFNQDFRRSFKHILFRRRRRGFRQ

[4] = target: T2, Alpha-2C adrenergic receptor (Rattus norvegicus, UniProt P22086)
T2 sequence (P22086 whole entry): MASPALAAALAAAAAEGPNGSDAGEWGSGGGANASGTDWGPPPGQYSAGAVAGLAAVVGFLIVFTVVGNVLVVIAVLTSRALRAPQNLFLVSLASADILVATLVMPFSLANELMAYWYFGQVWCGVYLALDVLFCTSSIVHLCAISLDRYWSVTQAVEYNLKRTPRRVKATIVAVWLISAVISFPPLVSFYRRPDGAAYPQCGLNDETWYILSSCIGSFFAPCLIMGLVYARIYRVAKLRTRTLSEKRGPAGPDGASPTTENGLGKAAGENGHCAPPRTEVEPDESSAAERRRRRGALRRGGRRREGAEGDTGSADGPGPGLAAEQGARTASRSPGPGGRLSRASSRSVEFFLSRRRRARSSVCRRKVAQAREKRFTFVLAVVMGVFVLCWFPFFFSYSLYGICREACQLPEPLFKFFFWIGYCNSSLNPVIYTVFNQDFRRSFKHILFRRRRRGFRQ

[5] = target: T3, 5-hydroxytryptamine receptor 1A (Homo sapiens, UniProt P08908)
T3 sequence (P08908 whole entry): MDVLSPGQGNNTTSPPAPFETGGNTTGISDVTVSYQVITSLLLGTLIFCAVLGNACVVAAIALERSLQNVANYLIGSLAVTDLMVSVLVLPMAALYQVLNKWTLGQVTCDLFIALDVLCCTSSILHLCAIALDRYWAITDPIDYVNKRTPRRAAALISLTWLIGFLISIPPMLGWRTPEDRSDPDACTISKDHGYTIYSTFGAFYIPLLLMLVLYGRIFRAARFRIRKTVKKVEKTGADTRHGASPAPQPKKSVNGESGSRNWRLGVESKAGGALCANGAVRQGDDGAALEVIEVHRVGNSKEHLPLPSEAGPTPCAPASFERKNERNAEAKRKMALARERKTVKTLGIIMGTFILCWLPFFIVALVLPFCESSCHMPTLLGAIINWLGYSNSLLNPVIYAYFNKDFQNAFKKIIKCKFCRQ

[6] = target: T4, Alpha-2A adrenergic receptor [16-465] (Rattus norvegicus, UniProt P22909)
T4 construct: 16-465
T4 sequence (P22909 whole entry): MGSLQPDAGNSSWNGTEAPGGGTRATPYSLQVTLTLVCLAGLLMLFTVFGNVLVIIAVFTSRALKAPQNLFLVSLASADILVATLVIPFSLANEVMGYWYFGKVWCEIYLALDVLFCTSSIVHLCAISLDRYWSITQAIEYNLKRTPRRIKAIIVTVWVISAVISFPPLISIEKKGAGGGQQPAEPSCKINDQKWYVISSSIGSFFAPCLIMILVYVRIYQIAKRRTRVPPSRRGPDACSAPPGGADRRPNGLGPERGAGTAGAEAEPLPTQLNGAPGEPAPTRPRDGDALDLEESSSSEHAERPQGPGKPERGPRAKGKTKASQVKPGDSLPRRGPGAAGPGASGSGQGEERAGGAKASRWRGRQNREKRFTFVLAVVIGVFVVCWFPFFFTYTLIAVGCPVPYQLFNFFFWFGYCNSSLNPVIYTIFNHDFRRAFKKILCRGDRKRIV

[7] = target: T5, 5-hydroxytryptamine receptor 1A (Rattus norvegicus, UniProt P19327)
T5 sequence (P19327 whole entry): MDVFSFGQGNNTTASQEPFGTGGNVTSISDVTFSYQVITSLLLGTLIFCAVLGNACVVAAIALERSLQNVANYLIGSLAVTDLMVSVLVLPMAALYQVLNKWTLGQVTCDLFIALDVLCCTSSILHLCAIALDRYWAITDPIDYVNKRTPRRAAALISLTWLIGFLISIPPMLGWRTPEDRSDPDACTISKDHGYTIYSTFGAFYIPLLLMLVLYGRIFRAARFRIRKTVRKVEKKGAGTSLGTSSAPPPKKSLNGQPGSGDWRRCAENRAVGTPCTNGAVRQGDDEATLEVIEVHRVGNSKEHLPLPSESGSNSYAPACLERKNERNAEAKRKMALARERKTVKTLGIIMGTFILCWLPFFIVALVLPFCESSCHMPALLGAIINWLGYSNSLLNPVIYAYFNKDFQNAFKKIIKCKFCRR

[8] = target: 5-hydroxytryptamine receptor 2A (Rattus norvegicus, UniProt P14842)
[9] = target: D(2) dopamine receptor (Homo sapiens, UniProt P14416)
Chain of D(2) dopamine receptor (Homo sapiens, UniProt P14416) (P14416 whole entry): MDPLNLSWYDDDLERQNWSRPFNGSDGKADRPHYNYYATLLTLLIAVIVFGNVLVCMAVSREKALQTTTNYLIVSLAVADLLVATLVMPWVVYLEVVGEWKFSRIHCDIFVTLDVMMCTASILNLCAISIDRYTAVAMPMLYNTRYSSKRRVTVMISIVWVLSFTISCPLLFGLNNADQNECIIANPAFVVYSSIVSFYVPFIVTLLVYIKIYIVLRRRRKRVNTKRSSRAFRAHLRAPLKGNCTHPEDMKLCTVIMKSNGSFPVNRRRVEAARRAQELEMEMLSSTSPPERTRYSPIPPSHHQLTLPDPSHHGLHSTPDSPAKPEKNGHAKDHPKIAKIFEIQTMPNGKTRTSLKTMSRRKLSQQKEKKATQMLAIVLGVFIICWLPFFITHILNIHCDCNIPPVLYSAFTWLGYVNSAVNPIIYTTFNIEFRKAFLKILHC

Chain of D(2) dopamine receptor (Rattus norvegicus, UniProt P61169) (P61169 whole entry): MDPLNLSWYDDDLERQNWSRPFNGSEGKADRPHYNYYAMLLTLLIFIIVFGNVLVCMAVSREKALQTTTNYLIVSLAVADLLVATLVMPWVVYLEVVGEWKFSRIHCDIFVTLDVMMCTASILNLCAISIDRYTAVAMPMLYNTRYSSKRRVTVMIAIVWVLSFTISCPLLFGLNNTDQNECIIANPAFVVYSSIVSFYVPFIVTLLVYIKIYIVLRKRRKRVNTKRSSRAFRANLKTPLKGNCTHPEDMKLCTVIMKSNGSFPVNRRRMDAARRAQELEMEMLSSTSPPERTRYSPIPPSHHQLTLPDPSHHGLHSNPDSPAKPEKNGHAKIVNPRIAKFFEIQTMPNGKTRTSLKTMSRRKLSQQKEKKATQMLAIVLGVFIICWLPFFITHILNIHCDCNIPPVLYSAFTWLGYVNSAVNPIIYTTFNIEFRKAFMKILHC
Chain of 5-hydroxytryptamine receptor 2A (P14842 whole entry): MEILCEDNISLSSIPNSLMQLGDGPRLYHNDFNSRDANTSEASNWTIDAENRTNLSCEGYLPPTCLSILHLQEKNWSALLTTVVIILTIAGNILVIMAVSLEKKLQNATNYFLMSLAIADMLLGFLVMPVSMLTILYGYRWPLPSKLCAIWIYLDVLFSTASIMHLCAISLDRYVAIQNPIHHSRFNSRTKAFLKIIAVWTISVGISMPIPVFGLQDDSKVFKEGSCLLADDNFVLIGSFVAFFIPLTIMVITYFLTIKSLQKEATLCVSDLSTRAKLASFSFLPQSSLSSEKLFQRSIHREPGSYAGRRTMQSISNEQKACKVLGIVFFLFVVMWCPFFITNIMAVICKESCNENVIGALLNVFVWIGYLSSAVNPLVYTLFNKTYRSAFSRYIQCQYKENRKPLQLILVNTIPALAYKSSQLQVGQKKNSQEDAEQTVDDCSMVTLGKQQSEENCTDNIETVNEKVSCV
Chain of 5-hydroxytryptamine receptor 1B (O08892 whole entry): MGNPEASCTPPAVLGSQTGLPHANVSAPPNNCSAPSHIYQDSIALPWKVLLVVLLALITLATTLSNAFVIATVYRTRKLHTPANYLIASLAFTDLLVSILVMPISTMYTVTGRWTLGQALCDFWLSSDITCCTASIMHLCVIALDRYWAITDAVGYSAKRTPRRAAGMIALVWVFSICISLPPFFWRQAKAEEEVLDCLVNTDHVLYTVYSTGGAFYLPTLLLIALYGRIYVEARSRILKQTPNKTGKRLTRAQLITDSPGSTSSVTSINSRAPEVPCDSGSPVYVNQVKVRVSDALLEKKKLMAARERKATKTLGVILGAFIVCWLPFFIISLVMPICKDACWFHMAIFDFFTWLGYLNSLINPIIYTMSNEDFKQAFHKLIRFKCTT

Compound `Fc1cccc2c1OC1CNCC1O2` (centres undefined) [CAS_105182-45-4] has a Ki [1] of 3160 nM, a Ki [2] of 1000 nM and a Ki [3] of 1.58 nM. For the same compound, the Ki [4] was 0.5 nM, the Ki [5] was 158 nM and the Ki [6] was 1.25 nM. For the same compound, the Ki [7] was 631 nM, the Ki [8] was 1000 nM and the Ki [9] was 1000 nM.
